Values joined by “and” are separate entries in the source; they are usually repeats but may differ in a detail not shown here. Equal entries are not always repeated.
Experiments:
Format in all cases: cell-based
fungal spores = test: Fungicidal activity, GOST 30028.4-2006, resistance of treated materials
Method: The fungicidal activity of the proposed salts is determined according to GOST 30028.4-2006 by testing samples of various materials treated with these salts for resistance to fungal spores. Test results in terms of tolerance time (in days) are given in Table 4 wherein tolerance time for untreated materials are given for comparison.

S. aureus No. 1257 = test: Bactericidal activity: exposure in solution, neutralization, inoculation on solid medium; parameters: key to Bacterial growth after exposure (colony-forming units in 1 ml): NG—no growth; CG—confluent growth; conditions: for Bacterial growth after exposure (colony-forming units in 1 ml): S. aureus 1257; for Bactericidal effect: S. aureus No. 1257
[1] = system: clinical strain P. aeruginosa; test: as above; parameters: key to Bacterial growth after exposure (colony-forming units in 1 ml): NG—no growth; CG—confluent growth; conditions: for Bactericidal effect: 4.0%
E. coli No. 906 = test: as above; parameters: key to Bacterial growth after exposure (colony-forming units in 1 ml): NG—no growth; CG—confluent growth; conditions: for Bacterial growth after exposure (colony-forming units in 1 ml): E. coli 906; for Bactericidal effect: E. coli No. 906
[2] = Emulsion polyvinyl chloride, additive content 5 wt %, untreated control 6 days
[3] = Paper impregnated with latex SKS 65 GP, additive content 5 wt %, untreated control 4 days

Compound | Tolerance time (fungal spores; [2]) | Tolerance time (fungal spores; [3]) | Bacterial growth after exposure (colony-forming units in 1 ml) (S. aureus No. 1257; 2.0 wt %, exposure 5 min) | Bacterial growth after exposure (colony-forming units in 1 ml) (S. aureus No. 1257; 2.0 wt %, exposure 15 min) | Bacterial growth after exposure (colony-forming units in 1 ml) (S. aureus No. 1257; 2.0 wt %, exposure 30 min) | Bacterial growth after exposure (colony-forming units in 1 ml) (S. aureus No. 1257; 4.0 wt %, exposure 5 min) | Bacterial growth after exposure (colony-forming units in 1 ml) (S. aureus No. 1257; 4.0 wt %, exposure 15 min) | Bacterial growth after exposure (colony-forming units in 1 ml) (S. aureus No. 1257; 4.0 wt %, exposure 30 min) | Bacterial growth after exposure (colony-forming units in 1 ml) (S. aureus No. 1257; 4.0 wt %, exposure 60 min) | Bacterial growth after exposure (colony-forming units in 1 ml) (E. coli No. 906; 2.0 wt %, exposure 5 min) | Bacterial growth after exposure (colony-forming units in 1 ml) (E. coli No. 906; 2.0 wt %, exposure 15 min) | Bacterial growth after exposure (colony-forming units in 1 ml) (E. coli No. 906; 2.0 wt %, exposure 30 min) | Bacterial growth after exposure (colony-forming units in 1 ml) (E. coli No. 906; 4.0 wt %, exposure 5 min) | Bacterial growth after exposure (colony-forming units in 1 ml) (E. coli No. 906; 4.0 wt %, exposure 15 min) | Bacterial growth after exposure (colony-forming units in 1 ml) (E. coli No. 906; 4.0 wt %, exposure 30 min) | Bacterial growth after exposure (colony-forming units in 1 ml) (E. coli No. 906; 4.0 wt %, exposure 60 min) | further results
C=CC(=O)[O-].CCCCCCCCCC(=O)[O-].[Cu+2] [Copper acrylate-caprinate] | 20 days | 19 days |  |  |  |  |  |  |  |  |  |  |  |  |  |  | Tolerance time (fungal spores; Paper impregnated with petrolatum base, additive content 5 wt %, untreated control 15 days): 21 days
C=CC(=O)[O-].CCCCCCCCCCCCCCCCCC(=O)[O-].[Cu+2] [Copper acrylate-stearate] | 12 days | 16 days | CG | >300 CFU | 25 CFU | NG | NG | NG | NG | CG | 100 CFU | 10 CFU | NG | NG | NG | NG | Bacterial growth after exposure (colony-forming units in 1 ml) (S. aureus No. 1257; 2.0 wt %, exposure 60 min): NG; Bactericidal effect (S. aureus No. 1257; 2.0%, exposure 60 min): sustained bactericidal effect; Bactericidal effect (S. aureus No. 1257; 4.0%, exposure from 5 min): sustained bactericidal effect; Bacterial growth after exposure (colony-forming units in 1 ml) ([1]; 2.0 wt %, exposure 5 min): CG; Bacterial growth after exposure (colony-forming units in 1 ml) ([1]; 2.0 wt %, exposure 15 min): CG; Bacterial growth after exposure (colony-forming units in 1 ml) ([1]; 2.0 wt %, exposure 30 min): CG; Bacterial growth after exposure (colony-forming units in 1 ml) ([1]; 2.0 wt %, exposure 60 min): CG; Bactericidal effect ([1]; exposure of more than 30 min): bactericidal effect; Bacterial growth after exposure (colony-forming units in 1 ml) ([1]; 4.0 wt %, exposure 5 min): CG; Bacterial growth after exposure (colony-forming units in 1 ml) ([1]; 4.0 wt %, exposure 15 min): >300 CFU; Bacterial growth after exposure (colony-forming units in 1 ml) ([1]; 4.0 wt %, exposure 60 min): NG; Bacterial growth after exposure (colony-forming units in 1 ml) (E. coli No. 906; 2.0 wt %, exposure 60 min): NG; Bactericidal effect (E. coli No. 906; 2.0%, exposure 60 min): sustained bactericidal effect; Bactericidal effect (E. coli No. 906; 4.0%, exposure from 5 min): sustained bactericidal effect
C/C=C/C(=O)[O-].C=CC(=O)[O-].[Zn+2] [Zinc acrylate-crotonate, zinc acrylate-crotonate] |  |  | CG | CG | CG | 7 CFU | NG | NG | NG | 75 CFU | 42 CFU | >300 CFU | NG | NG | NG | NG | Bacterial growth after exposure (colony-forming units in 1 ml) (S. aureus No. 1257; 2.0 wt %, exposure 60 min): >300 CFU; Bactericidal effect (S. aureus No. 1257; 4.0%, exposure from 15 min): sustained bactericidal effect; Bacterial growth after exposure (colony-forming units in 1 ml) ([1]; 2.0 wt %, exposure 5 min): >300 CFU; Bacterial growth after exposure (colony-forming units in 1 ml) ([1]; 2.0 wt %, exposure 15 min): 10 CFU; Bacterial growth after exposure (colony-forming units in 1 ml) ([1]; 2.0 wt %, exposure 30 min): 4 CFU; Bactericidal effect ([1]; exposure from 15 min): sustained bactericidal effect; Bacterial growth after exposure (colony-forming units in 1 ml) ([1]; 4.0 wt %, exposure 5 min): 1 CFU; Bacterial growth after exposure (colony-forming units in 1 ml) ([1]; 4.0 wt %, exposure 15 min): NG; Bacterial growth after exposure (colony-forming units in 1 ml) ([1]; 4.0 wt %, exposure 30 min): NG; Bacterial growth after exposure (colony-forming units in 1 ml) ([1]; 4.0 wt %, exposure 60 min): NG; Bactericidal effect (E. coli No. 906; 4.0%, exposure from 15 min): sustained bactericidal effect
C=CC(=O)[O-].CCCCCCCCCCC(=O)[O-].[Zn+2] [Zinc acrylate-undecylate] | 10 days | 12 days |  |  |  |  |  |  |  |  |  |  |  |  |  |  | Tolerance time (fungal spores; Paper impregnated with petrolatum base, additive content 4.7 wt %, untreated control 15 days): 20 days
Copper methacrylate-sorbate |  |  | >300 CFU | 85 CFU | 35 CFU and 43 CFU | NG | NG | NG | NG | >300 CFU | 78 CFU | 45 CFU and 53 CFU | 1 CFU | NG | NG | NG | Bactericidal effect (S. aureus No. 1257; 4.0%, exposure from 15 min): sustained bactericidal effect; Bactericidal effect ([1]; exposure from 15 min): sustained bactericidal effect; Bacterial growth after exposure (colony-forming units in 1 ml) (E. coli No. 906; 2.0 wt %, exposure 60 min): 5 CFU and 4 CFU; Bactericidal effect (E. coli No. 906; 4.0%, exposure from 15 min): sustained bactericidal effect
Copper methacrylate-valerate | 16 days |  |  |  |  |  |  |  |  |  |  |  |  |  |  |  | 
Zinc methacrylate-butyrate | 11 days | 10 days |  |  |  |  |  |  |  |  |  |  |  |  |  |  | 
Zinc methacrylate-myristate | 12 days |  |  |  |  |  |  |  |  |  |  |  |  |  |  |  | 

Source: US9924715B2, “Zinc or copper (II) salt and use thereof as a biocide” (LABORATORIYA BIO ZET, LLC, priority 2014, dated 2018)
